Measurements reported in patent publication US6656729B2, “Compositions which inhibit apoptosis, methods of purifying the compositions and uses thereof” (Sky High, LLC, priority 1993, dated 2003).

System: C3H 10T1/2 cells
Assay: Apoptosis assay with C3H 10T1/2 cells (serum deprivation)
Type: cell-based
Details: for ACTIVITY (anti-apoptotic activity of known phospholipids): serum-deprived 10T½ cells, dissolved at 10 mM (100× test concentration), pre-incubation in 1% BSA, final BSA ≦0.01%
Description: In order to determine the apoptotic activity of the PAIs, the following experiment was performed. […] Exponential growth phase was assured by seeding at 2000 cells per 1 ml (5 ml for a 60 mm culture plate) five days prior to the beginning of the experiment. At T=0, cultures were transferred to serum-free medium, as an apoptosis stimulus, and seed extracts were added. Controls included 10^−7 M 12-O-tetradecanoyl phorbol-13-acetate (TPA) to ensure the responsiveness of the cell culture. The PAI samples prepared by extraction with ethanol and by gel filtration were added to serum free medium at 0.1 g dry weight equivalents and sterile filtered prior to addition to the cultures. Assays were performed in triplicate or quadruplicate. Analyses of the cell responses were made after between 22 and 28 hours of serum deprivation and/or treatment with soy flour derived PAIs. Two assays were performed on each cell culture plate consisting of differential cell counts.
1. All non-adherent or loosely adherent cells were removed from the culture dish and counted by appropriate techniques, typically counting by electric particle counting instrument. These are the apoptotic cells, the serum deprived released cells (SDR), released by the action of cultivation in serum-free medium.
2. The remaining adherent cells (ADH) are exposed to a buffered, typically pH 7.3, balanced salt solution such as Hanks Balanced Salt Solution without calcium and magnesium salts containing 0.05% trypsin and 0.53 mM ethylenediaminetetraacetic acid (EDTA). Each culture is incubated at either room temperature or 37° C. on a rocking platform to ensure uniform distribution of the trypsin reagent over the culture surface. After a standardized period of time, typically 10 minutes, the released cells are removed from each culture dish and measured by the same means as described above, typically electronic particle counting.
All commercial samples were dissolved at a concentration of 10 mM (100× test concentration) in 1% bovine serum albumin (BSA), 0.5 mM calcium chloride, 0.5 mM magnesium chloride, at room temperature. All compounds were tested after pre-incubation in 1% BSA. The final concentration of BSA in the apoptosis was ≦0.01%. […] All tested compounds were obtained from Sigma. The BSA was obtained from Boehringer Mannheim.

Compound | ACTIVITY (anti-apoptotic activity of known phospholipids) | other results
L-a-phosphatidyl choline [L-a-phosphatidyl choline Type V-EA] | 0 | 
CCCCCCCC/C=C\CCCCCCCC(=O)OC[C@@H](O)COP(=O)(O)O (stereo in doubt) [L-a-lysophosphatidic acid, oleoyl (C18:1, [cis]-9)] | ++ | Anti-apoptotic activity (in words) (in the presence of Bowman-Birk inhibitors): does not confer anti-apoptotic activity; Anti-apoptotic activity (in words) (in the presence of a protein or proteins to which it specifically binds (serum albumin)): possess anti-apoptotic activity; Anti-apoptotic activity (in words) (in the presence of fraction B): possessed anti-apoptotic activity; Effect of pre-incubation on anti-apoptotic activity (pre-incubation with BSA (FIG. 14)): enhanced; Effect of pre-incubation on anti-apoptotic activity (pre-incubation with fraction B (FIG. 14)): enhanced; Anti-apoptotic activity (in words) (substance or fraction alone): no anti-apoptotic activity
CCCCCCCC/C=C\CCCCCCCC(=O)OC[C@H](COP(=O)(O)O)OC(=O)CCCCCCC/C=C\CCCCCCCC (stereo in doubt) [L-a-phosphatidic acid, dioleoyl (C18:1, [cis]-9)] | 0 | 
L-a-lysophosphatidyl ethanolamine | 0 | 
L-a-phosphatidyl ethanolamine [L-a-phosphatidyl ethanolamine, Type IV] | 0 | 
L-a-phosphatidyl inositol | 0 | 
